Values joined by “and” are separate entries in the source; they are usually repeats but may differ in a detail not shown here. Equal entries are not always repeated. Where two headings read alike, the source gives them in different places. Peptide text beside a SMILES is read from it.
Columns and labels:
[1] = system: biofilms of PA004, KP007, and KP010; test: CLSM imaging of biofilms after Live/Dead staining; assay type: cell-based, P. aeruginosa and K. pneumoniae; details: qualitative
Method: For confocal laser scanning microscopy (CLSM) imaging, 24 h biofilms of PA004, KP007, and KP010 were formed in μ-Dish (35 mm, high), ibidi Polymer Coverslips (ibidi GmbH, Planegg-Martinsried, Germany) as previously described by [Bessa et al. (2018)]. Biofilms were non-treated – controls (only medium was used) or treated with 3.1-PP4 at a concentration of 20 × MIC. After 24 h, all biofilms were stained using the LIVE/DEAD^TM BacLight^TM bacterial viability kit (Molecular Probes, Thermo Fisher Scientific, MA, United States). Biofilms were visualized under a laser scanning confocal system Leica TCS SP5 II (Leica Microsystems, Germany), equipped with an inverted (i) microscope Leica DMI6000-CS, using a HC PL APO CS 63x/1.30 Glycerine 21°C objective and the lasers Diode 405 nm and DPSS561 561 nm, and (ii) the LAS AF software.
To gain further insight into the peptide’s effects on the bacterial biofilms, a Live/Dead staining assay using CLSM was carried out, where untreated and peptide-treated biofilms delivered the images depicted in Figure 2. […] Noteworthy, only bacterial cells, not biofilm matrix, are stained when the Live/Dead staining is used, which means that only cells within the biofilm are observed.

[2] = system: MDR clinical isolates of P. aeruginosa (PA002, PA004, Pa3, Pa4); assay type: cell-based, Pseudomonas aeruginosa
Method: (§1) The minimum inhibitory concentration (MIC) of synthetic peptides was determined using the broth microdilution method in cation-adjusted Mueller-Hinton broth (MHB2 – Sigma-Aldrich, St. Louis, MO, United States), according to the recommendations of the Clinical and Laboratory Standards Institute ([CLSI, 2012]), against four reference strains, namely, P. aeruginosa ATCC 27853, E. coli ATCC 25922, S. aureus ATCC 25923 and Enterococcus faecalis ATCC 29212. MIC values of peptide 3.1-PP4 were also determined against MDR clinical isolates of P. aeruginosa (PA002, PA004, Pa3, Pa4), E. coli (Ec1, Ec2, EC001, EC002, EC003) and K. pneumoniae (KP004, KP007, KP010). The peptides were tested in the concentration range of 1–1024 μg/mL. The minimum bactericidal concentration (MBC) was determined as previously reported ([Bessa et al., 2018]).
In view of the above results, peptide conjugate 3.1-PP4 was selected for further investigation of its activity against MDR isolates of three Gram-negative bacterial species, namely, P. aeruginosa (four isolates), E. coli (five isolates), and K. pneumoniae (four isolates), whose antimicrobial resistance patterns are provided in the Supplementary Table S1. MDR isolates of K. pneumoniae were included in this analysis given (i) the high prevalence of K. pneumoniae in HAI ([Zheng et al., 2017]), (ii) that K. pneumoniae isolates used are carbanepem-resistant strains of an Enterobacteriaceae species, meaning that they are class 1 priority pathogens for the research and development of new antibiotics according to the WHO ([WHO, 2017]), and (iii) K. pneumoniae bacteria are usually better biofilm producers than the other Enterobacteriaceae species used, E. coli ([Reisner et al., 2006]). MIC values obtained are shown in Table 3, and confirm peptide’s 3.1-PP4 potent action against Gram-negative bacteria, including MDR isolates, with a selectivity index (SI), i.e., ratio of IC50 values for mammalian vs. bacterial cells, ranging from ca. 9–69. In fact, for P. aeruginosa and E. coli, MIC against MDR isolates were in the same range, or below, of those previously found for ATCC reference strains (Table 2). For K. pneumoniae, MIC values ranged between 1 and 4 μM, which is remarkable.

[3] = system: multidrug-resistant isolates of Klebsiella pneumoniae, E. coli, and P. aeruginosa; assay type: cell-based
Method: as §1
In view of the above results, peptide conjugate 3.1-PP4 was selected for further investigation of its activity against MDR isolates of three Gram-negative bacterial species, namely, P. aeruginosa (four isolates), E. coli (five isolates), and K. pneumoniae (four isolates), whose antimicrobial resistance patterns are provided in the Supplementary Table S1. […]

MIC ([2]; MDR P. aeruginosa isolate PA002, MHB2): 4 µg/mL | MIC ([2]; MDR P. aeruginosa isolate PA004, MHB2): 2 μg/mL and 1 μM | MIC ([2]; MDR P. aeruginosa isolate Pa3, MHB2): 2 μg/mL and 1 μM | MIC ([2]; MDR P. aeruginosa isolate Pa4, MHB2): 2 μg/mL and 1 μM | MIC ([2]; MDR clinical isolates of (PA002, PA004, Pa3, Pa4)): 2 µM | MIC values against multidrug-resistant isolates [3]: 0.5 to 4.1 µM
SMILES: CC(C)C[C@H](NC(=O)[C@H](Cc1c[nH]c2ccccc12)NC(=O)[C@H](CCCCN)NC(=O)[C@H](CC(C)C)NC(=O)[C@H](CC(C)C)NC(=O)[C@H](CCCCN)NC(=O)[C@@H](N)CCCCN)C(=O)N[C@@H](CC(C)C)C(=O)N[C@@H](CCCCN)C(=O)N[C@@H](CC(C)C)C(=O)N[C@@H](CC(C)C)C(=O)N[C@@H](CCCCN)C(=O)N[C@H](C(=O)N[C@H](C(=O)N[C@@H](CCCCN)C(=O)N[C@@H](CO)C(N)=O)[C@@H](C)O)[C@@H](C)O [Peptide 3.1-PP4] (H-KKLLKWLLKLLKTTKS-NH2; N-terminus assumed)
ratio of red- to green-stained bacterial cells (Live/Dead, CLSM) ([1]; 24 h biofilms of PA004, KP007, KP010 treated 24 h at 20 × MIC, vs untreated): consistently higher in peptide-treated | impact on biofilm (Live/Dead, CLSM) ([1]; isolate KP010, 24 h biofilm treated 24 h at 20 × MIC): significant biofilm disaggregation

— article PMC6710338, “Turning a Collagenesis-Inducing Peptide Into a Potent Antibacterial and Antibiofilm Agent Against Multidrug-Resistant Gram-Negative Bacteria” (Frontiers in Microbiology, 2019)
